We go through two compounds from US11577092B2, “Phosphor-containing drug activator activatable by a monte carlo derived X-ray exposure, system containing the activator, and methods for use” (IMMUNOLIGHT, LLC, priority 2016, dated 2023).

Data set [1] concerns 4T1-HER2 cells. The data set can be described thus: Methylene blue staining for cell viability post treatment. It counts as cell-based, murine. The conditions noted are these: individual components; 1 Gy of 80 kVp x-rays; phosphor 25, 50, 100 μg/mL; UVADEX 10 uM 8-MOP. From the text:
Methylene blue staining of viable 4T1-HER2 cells confirms that the device works well according to the target parameters identified above. A plate having six (6) wells is subjected to treatment. FIG. 11 is a photographic depiction showing of Methylene Blue stain for cell viability post treatment with X-ray, phosphors and UVADEX. One well (#1) is the control. One well (#2) has phosphor coated with EC and DLC (H100). One well (#3) has phosphor coated with EC (but no DLC). One well (#4) has drug UVADEX but no phosphors. One well (#5) has drug UVADEX and phosphors coated with EC and DLC. One well (#6) has drug UVADEX and phosphors coated with EC and no DLC.
All wells were exposed to the optimized x-ray initiation energy noted above. […] One added benefit to a dual coating is redundancy in safety of the treatment.
(§1) Other assays were used to provide independent complimentary information on cell viability, e.g. Methylene blue staining and ATP-induced Luminescence imaging (Cell-Titer-Glo® Luminescence Cell Viability Assay). The luminescence imaging permitted investigation of the cytotoxicity of psoralen activated directly with a UV lamp, and in the absence of phosphors and x-ray radiation.
FIGS. 13A-13D illustrates the efficacy of treatment in-vitro in 4T1-HER2 cells, utilizing a regimen of 1/10-diluted UVADEX (with equivalent of 10 uM 8-MOP), 50 μg/mL phosphor 1 Gy of 80 kVp x-rays. […]

Data set [2] concerns 4T1-HER2 cells. The data set can be described thus: Cell viability by Guava flow cytometry (forward scattering) 48 hours after treatment. It counts as cell-based, murine. The settings on record: single component, 1 Gy of 80 kVp; UVADEX p=0.97, phosphors p=0.034. The protocol: (§2) In-vitro studies were conducted on plated cells following standard procedures. Cells were maintained in RPMI-1640 supplemented with 10% fetal bovine serum and L-glutamine from GIBCO (Grand Island, N.Y.) growing in a humidified atmosphere of 5% CO2. After incubation, cells were trypsinized and plated evenly onto twelve 12-well plates for 24 hours. […] Each plate had 12 wells with three wells for each of the four treatment arms. The plates were then irradiated with x-rays by placing the plate at a known distance from the x-ray source (50 cm). After irradiation, the cells were incubated on the plate for 48 hours prior to performing flow cytometry. […]
(§3) Two primary flow cytometry analyses were used, both determined at 48 hours after treatment. […] The first analysis evaluated was metabolic cell viability (herein referred to as cell viability) calculated from the number of whole cells per well as determined using forward scattering (FSC). […]
(§4) FIGS. 13A-13D illustrates the efficacy of treatment in-vitro in 4T1-HER2 cells, utilizing a regimen of 1/10-diluted UVADEX (with equivalent of 10 uM 8-MOP), 50 μg/mL phosphor 1 Gy of 80 kVp x-rays. […] In FIG. 13A, cell viability after treatment (10 μM 8-MOP equivalent dilution of UVADEX, 50 μg/mL phosphor, 1 Gy of 80 kVp radiation) as determined by Guava flow cytome cytometry is depicted. […]
(In flow cytometry, cells or beads pass a laser one at a time.)

Data set [3] relates to 4T1-HER2 cells. Nature of the data set: Annexin V positivity by flow cytometry 48 hours after treatment. It counts as cell-based, murine. The conditions noted are these: 10 μM 8-MOP equivalent UVADEX, 50 μg/mL phosphor, 1 Gy of 80 kVp; UVADEX alone with or without x-ray. Here is the method:
as §2, §3, §4

Data set [4] deals with CT2A (murine malignant glioma), 4T1 and KP-B (sarcoma) cell lines. The data set can be described thus: Cell-Titer-Glo Luminescence Cell Viability Assay on three cell lines. In kind it is cell-based. The settings on record: psoralen 40 μM; UV light 0, 0.25, 0.5, 1.0 J/cm^2; N=4.
From the text: Guava Annexin V flow cell cytometry was used to quantify cytotoxicity in 3 murine tumor cell lines (mammary −4T1; 4T1-HER2, 4T1 stably transfected with the human HER2 oncogene; glioma-CT2A; sarcoma KP-B). The mouse breast cancer cell line 4T1 was purchased from ATCC. 4T1-HER2 was provided by Dr. Michael Kershaw (Cancer Immunology Program, Peter MacCallum Cancer Centre, Victoria, Australia) and maintained in DMEM with penicillin/streptomycin and 10% FBS The Sarcoma KP-B cell lines were derived from primary tumors LSL-Kras; p53 Flox/Flox mice (45).
as §1
FIG. 14B presents data on CT2A malignant glioma cells, for a range of treatment parameters including variable x-ray dose (0, 0.67 and 1 Gy), phosphor concentration (50 or 100 μg) and psoralen concentration (8-MOP) at 10, 20 and 40 μM respectively. […] N=4 for each cell line at each UV light condition (0, 0.25, 0.5, 1.0 J/cm^2). The psoralen concentration was 40 μM. […]

Each structure is given as a SMILES string.

With `COc1c2occc2cc2ccc(=O)oc12` [UVADEX, 8-methoxypsoralen], the “effect in methyl blue staining” value in the data set on 4T1-HER2 cells [1] is reported as “little effect”. For the same compound, the “reduction in cell viability when radiation was added” value in the data set on 4T1-HER2 cells [2] is listed as “no significant effect”. Further, the “increase in Annexin V staining (apoptotic activity)” value in the data set on 4T1-HER2 cells [3] is given as “negligible apoptotic activity”.

In the case of `O=c1ccc2cc3ccoc3cc2o1` [psoralen], in data set [4], the “viable cells after UV light activated psoralen” value is given as “reduce viable cells in 3 cell lines”.
